Experimental data published in patent US11512290B2, “Compositions and methods for cellular reprogramming” (Duke University, priority 2018, dated 2022).
“Also recorded” adds a separate entry of the source. {ppp} = triphosphate

Assays:
Format in all cases: cell-based, Mouse (C57BL/6)
[1] = system: neonatal cardiac fibroblasts; experiment: Actn2 (α-sarcomeric actinin) immunofluorescence of reprogrammed fibroblasts
Procedure: (§1) Mouse (C57BL/6) neonatal cardiac fibroblasts were isolated from 2 day old mouse neonates according to the method outlined in Jayawardena et al. Following isolation fibroblasts were cultured in growth media containing DMEM (ATCC, Catalogue number 30-2002) supplemented with 15% v/v FBS (Thermo Scientific Hyclone Fetal bovine serum, Catalogue number SH30071.03, Lot number AXK49952) and 1% v/v penicillin/streptomycin (Gibco, Catalogue number 15140-122, 100 units Penicillin, 100 ug/ml Streptomycin). Fibroblasts were passaged once the cells had reached 70-80% confluence using 0.05% w/v trypsin (Gibco, Catalogue number 25300-054). Freshly isolated fibroblasts were labelled as Passage 0. Experiments were conducted with cells at passage 2. For all experiments, cells were seeded at 5000 cells/cm^2 in growth media. After 24 hours, the cells were transfected with transfection reagent alone (Dharmafect-I, ThermoScientific), with transfection reagent plus non-targeting microRNAs (negmiR), or with transfection reagent plus our previously reported combination of cardiac reprogramming microRNAs[9] (miR combo, miR-1, miR-133, miR-208, miR-499).
Cells were fixed with 2% v/v paraformaldehyde (EMS) as described previously. Fixed cells were blocked in antibody buffer (5% w/v BSA, 0.1% v/v Tween-20, in PBS) for 1 hr at room temperature. Following blocking, cells were incubated overnight at 4° C. with a-sarcomeric actinin antibody (Sigma, A7811, 1:100) in antibody buffer. After the overnight incubation, cells were washed three times in antibody buffer. Following washing, cells were incubated with Alexa-Fluor conjugated secondary antibodies (Invitrogen, Goat Anti-mouse 594 nm) at a 1:500 dilution in antibody buffer for 1 hr at room temperature. Nuclei were stained by DAPI at 1 μg/ml for 30 minutes at room temperature in antibody buffer. Following washing in PBS to remove unbound complexes, immunofluorescence was measured using a Zeiss Axiovert 200 inverted microscope.

[2] = system: neonatal cardiac fibroblasts; experiment: qPCR of cardiomyocyte sarcomere (maturation) genes in miR combo reprogrammed fibroblasts; details: for cardiomyocyte maturation (expression of Actn2, Myh6, Tnni3, Cacna1c): miR combo or negmiR transfected, various concentrations of ICR for 4 days, gene expression at day 14
Procedure: as §1
qPCR: Total RNA was extracted using Quick-RNA MiniPrep Kit according to the manufacturer's instructions (Zymo Research). Total RNA (50 ng-100 ng) was converted to cDNA using a high capacity cDNA reverse transcription kit (Applied Biosystems). cDNA was used in a standard qPCR reaction involving FAM conjugated gene specific primers and TaqMan Gene Expression Master Mix (Applied Biosystems). The following primers were used for qPCR: Gapdh (Mm99999915_m1), Tnni3 (Mm00437164_m1), Actn2 (Mm00473657_m1), Myh6 (Mm00440359_m1), Cacna1c (Mm00437917_m1), Mef2C (Mm01340482_m1), Tbx5 (Mm00803518_m1), Gata4 (Mm00484689_m1) and Hand2 (Mm00439247 m1).

[3] = biological target: T1, TLR3 (Mus musculus, UniProt Q99MB1); experiment: IL6 ELISA: TLR3 activity measured as IL6 secretion into the media; details: CU-CPT-4a added one day post-transfection
T1 construct: neonatal cardiac fibroblasts were transfected with negmiR or miR combo; endogenous in cells; host or cells: mouse (C57BL/6) neonatal cardiac fibroblasts, passage 2
T1 sequence (Q99MB1 26-905): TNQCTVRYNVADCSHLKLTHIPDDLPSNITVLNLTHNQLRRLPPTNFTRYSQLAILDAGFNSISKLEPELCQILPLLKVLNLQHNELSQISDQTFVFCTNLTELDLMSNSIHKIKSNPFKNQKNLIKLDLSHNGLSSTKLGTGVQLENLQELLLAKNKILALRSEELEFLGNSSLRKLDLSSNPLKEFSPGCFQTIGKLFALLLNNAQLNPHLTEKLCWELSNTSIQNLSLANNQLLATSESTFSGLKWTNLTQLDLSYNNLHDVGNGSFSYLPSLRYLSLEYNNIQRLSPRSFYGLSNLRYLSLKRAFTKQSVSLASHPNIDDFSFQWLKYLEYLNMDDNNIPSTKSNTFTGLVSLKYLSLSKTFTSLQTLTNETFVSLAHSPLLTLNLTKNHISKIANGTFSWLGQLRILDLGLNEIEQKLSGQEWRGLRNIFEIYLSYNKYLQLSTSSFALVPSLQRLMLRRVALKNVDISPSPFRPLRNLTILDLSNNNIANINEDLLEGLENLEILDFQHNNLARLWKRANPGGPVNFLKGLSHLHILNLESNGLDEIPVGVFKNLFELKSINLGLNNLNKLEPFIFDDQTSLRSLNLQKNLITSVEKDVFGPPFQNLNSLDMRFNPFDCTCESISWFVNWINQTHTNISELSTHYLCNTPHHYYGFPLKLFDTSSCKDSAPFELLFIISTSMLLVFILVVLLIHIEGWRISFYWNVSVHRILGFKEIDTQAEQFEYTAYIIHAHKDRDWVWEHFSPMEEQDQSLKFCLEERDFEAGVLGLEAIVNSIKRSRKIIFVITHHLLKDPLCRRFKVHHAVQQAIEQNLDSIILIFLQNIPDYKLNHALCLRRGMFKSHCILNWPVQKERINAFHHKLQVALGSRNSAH
Procedure: IL6 ELISA kits were from R&D Systems. Fresh media (1 ml) was added to the cells one day prior to assaying for IL6. Per manufacturer's instructions 50 ul of media was assayed and the amount of IL6 in pg/ml in the culture media was determined via a standard curve. The IL6 pg/ml value was then adjusted for the total volume of the media (1 ml) and the total cellular protein in each well to correct for differences in cell number.
To test this further we transfected cells with microRNAs and assessed TLR3 activity by measuring IL6 secretion into the media. IL6 secretion is an accepted measurement of the activity of TLRs, including TLR3 [30-37]. […] Targeted knockdown of TLR3 or Ikbkb inhibited miR combo induced IL6 secretion; further validating that miR combo activated the TLR3-NFκB pathway (FIG. 6B).

[4] = system: neonatal cardiac fibroblasts; experiment: Generating beating reprogrammed cardiomyocytes (count of beating colonies)
Procedure: Isolated mouse (C57BL/6) neonatal cardiac fibroblasts (passage 2) were seeded into 12-well dishes at […] in growth media. Twenty-four hours later growth media was removed and the cells transfected with negmiR or miR combo as described above. One day later, the transfection complexes were removed and media was replaced with a chemically defined reprogramming media[12] that contained 1 ug/ml Poly(I:C) (LMW). For the next four days, cells received fresh chemically defined reprogramming media containing 1 ug/ml Poly(I:C) (LMW) daily. After this period, the cells received chemically defined reprogramming media without Poly(I:C) (LMW) for a further 10 days. Media was replaced every other day. Beating colonies were identified with a Zeiss Axiovert 200 inverted microscope.

[5] = system: neonatal cardiac fibroblasts; experiment: qPCR of cardiomyocyte-lineage commitment factors (initiation phase of cardiac reprogramming); details: TLR3 agonist Poly(I:C) LMW for 3 days after transfection, FIGS. 2Bi-2Biv
Procedure: as §1
qPCR: Total RNA was extracted using Quick-RNA MiniPrep Kit according to the manufacturer's instructions (Zymo Research). […]

O=C(N[C@H](Cc1ccccc1)C(=O)O)c1sc2cc(F)ccc2c1Cl [CU-CPT-4a]
ability of miR combo to generate mature cardiomyocytes with organized sarcomeres ([1]; CU-CPT-4a 10 μM, anti-Actn2 staining, FIGS. 1Ci-1Ciii): completely inhibited | effect of miR combo upon cardiomyocyte sarcomere gene expression ([2]; CU-CPT-4a 10 μM for 4 days after miR combo transfection, then 6 days growth media): completely abolished | miR combo reprogramming with respect to the expression of Myh6, Actn2, and Tnni3 ([2]; CU-CPT-4a 10 μM for 4 days after transfection, then 10 days growth media, FIGS. 1Bi-1Biii): completely inhibited | effect of negmiR and miR combo upon IL6 secretion [3]: completely ablated

ICR4: 5′ppp 2′F ssRNA comprising multiple stem-loops, SEQ ID NO: 37: ggaug cggua ccuga cagca uccua aacuc auggu ccaug uuugu ccaug gacca (GGAUGCGGUACCUGACAGCAUCCUAAACUCAUGGUCCAUGUUUGUCCAUGGACCA; 2'-fluoro at CU, RNA at AG, 5' {ppp}, backbone not given here; single strand with multiple stem-loops)
cardiomyocyte maturation (expression of Actn2, Myh6, Tnni3, Cacna1c) [2]: activated cardiomyocyte maturation

ICR2: 2′F pyrimidine-incorporated 5′ppp RNA, blunt-ended hairpin, SEQ ID NO: 30: ggaug cggua ccuga cagca ucc (GGAUGCGGUACCUGACAGCAUCC; 2'-fluoro at CU, RNA at AG, 5' {ppp}, backbone not given here; blunt-ended hairpin)
cardiomyocyte maturation (expression of Actn2, Myh6, Tnni3, Cacna1c) [2]: induced maturation; also recorded: activated cardiomyocyte maturation

Poly(I:C)
increase of the ability of miR combo to form spontaneously beating colonies ([4]; addition of Poly(I:C) (LMW) 1 ug/ml, colonies counted 14 days after transfection): 3 fold | time at which mature beating colonies were observed ([4]; miR combo plus Poly(I:C), time after transfection): within one week | number of Actn2(+) cells that formed in response to miR combo treatment ([1]; Poly(I:C) LMW for 4 days, FIG. 7C): increased | sarcomere maturation ([1]; miR combo plus Poly(I:C), inserts of FIGS. 7Bi-7Bvi): enhanced | expression of cardiomyocyte-commitment factors Gata4, Hand2, Tbx5 and Mef2C [5]: no effect | effect of miR combo upon Myh6, Actn2 and Tnni3 expression ([2]; Poly(I:C) LMW for 4 days after miR combo transfection, then 10 days growth media): significantly enhanced | expression of Myh6, Actn2 and Tnni3 in the control negmiR samples ([2]; Poly(I:C) LMW for 4 days after negmiR transfection, then 10 days growth media): induced expression
